Laboratory results: PubChem BioAssay (NCI)
“And” between values parts separate entries of the source, which are not always exact repeats. Equal entries are not always repeated.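 Exposure lasted 48 hours, with cells grown in 96-well plates and compounds tested at five concentrations. Here, GI50 denotes the concentration required for 50% inhibition of growth. TGI: concentration producing complete growth inhibition.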

Experiments:
Assay in all cases: NCI tumour cell line growth inhibition, 48 h
DMS 114 small cell lung = tested on: DMS 114 small cell lung
LXFL 529 NSCLC = tested on: LXFL 529 NSCLC
M14 melanoma = tested on: M14 melanoma
SNB-78 CNS = tested on: SNB-78 CNS
HOP-18 NSCLC = tested on: HOP-18 NSCLC
DU-145 prostate = tested on: DU-145 prostate
HS 578T breast = tested on: HS 578T breast
NCI/ADR-RES ovarian = tested on: NCI/ADR-RES ovarian
PC-3 prostate = tested on: PC-3 prostate
T-47D breast = tested on: T-47D breast

| SMILES | GI50 (DMS 114 small cell lung) | TGI (DMS 114 small cell lung) | GI50 (LXFL 529 NSCLC) | TGI (LXFL 529 NSCLC) | GI50 (M14 melanoma) | TGI (M14 melanoma) | TGI (SNB-78 CNS) | TGI (HOP-18 NSCLC) | GI50 (DU-145 prostate) | TGI (DU-145 prostate) | GI50 (HS 578T breast) | TGI (HS 578T breast) | GI50 (NCI/ADR-RES ovarian) | TGI (NCI/ADR-RES ovarian) | GI50 (PC-3 prostate) | TGI (PC-3 prostate) | GI50 (T-47D breast) | TGI (T-47D breast) | GI50 (SNB-78 CNS) |
| --- | --- | --- | --- | --- | --- | --- | --- | --- | --- | --- | --- | --- | --- | --- | --- | --- | --- | --- | --- |
| [Cl-].[Dy+3].[O-]/N=C(\c1ccccc1)c1ccccn1.[O-]/N=C(\c1ccccc1)c1ccccn1.[O-]/N=C(\c1ccccc1)c1ccccn1 | 24.6 µM | 77.6 µM | 41.2 µM | > 100 µM | 22.1 µM | 43.1 µM |  |  |  |  |  |  |  |  |  |  |  |  |  |
| O=C1C2c3[nH]c4ccccc4c3C3CCCCCCC3C2C(=O)N1c1ccccc1 (configuration not stated) |  | 17.5 µM |  | 33.8 µM |  | 42.5 µM | 32.4 µM |  |  |  |  |  |  |  |  |  |  |  |  |
| CC(C)(C)C1C=C(Sc2ccccc2)C(=O)O1 (configuration not stated) |  | > 100 µM |  | > 100 µM |  | > 100 µM | > 100 µM | > 100 µM |  |  |  |  |  |  |  |  |  |  |  |
| COC(=O)/C(=N/NC(=O)C[N+](C)(C)C)C(C(=O)OC)C(=O)C(=O)Nc1ccc(F)cc1 (configuration not stated) |  | > 100 µM |  | > 100 µM |  | > 100 µM | > 100 µM | > 100 µM |  |  |  |  |  |  |  |  |  |  |  |
| C/C(CC(=O)Nc1ccc(C)cc1C)=N/N=C(N)N |  | > 100 µM |  | > 100 µM |  | > 100 µM | > 100 µM |  |  |  |  |  |  |  |  |  |  |  |  |
| COC(=O)c1c/c(=N\NC(=O)CC(=O)Nc2ccccc2OC)c2ccccc2o1 |  | > 100 µM |  | > 100 µM |  | > 100 µM | > 100 µM | > 100 µM |  |  |  |  |  |  |  |  |  |  |  |
| COC12C=C(C)C(CC1)CC2C(=O)O (configuration not stated) |  |  |  | > 100 µM |  | > 100 µM | > 100 µM | > 100 µM |  |  |  |  |  |  |  |  |  |  |  |
| Cc1cc2c(cc1C)[n+](=O)c(C(=O)C/C(=N/NC(=O)CC#N)C(=O)Nc1ccccc1C(F)(F)F)c(C)n2[O-] |  | > 100 µM |  | > 100 µM |  | > 100 µM |  | > 100 µM |  |  |  |  |  |  |  |  |  |  |  |
| COC(=O)/C=C/c1cc(OC)c(OC)c(OC)c1 |  | > 100 µM |  | > 100 µM |  | > 100 µM |  | > 100 µM |  |  |  |  |  |  |  |  |  |  |  |
| CN1CCN(C(=O)OCc2nc3c(N4CCOCC4)nc(Cl)nc3n2C)CC1 |  |  |  |  | 1.19 µM | 2.65 µM |  |  | 1.39 µM | 3.09 µM | 1.64 µM | 5.38 µM | 2.46 µM | 9.59 µM | 1.33 µM | 2.92 µM | 2.01 µM | 4.99 µM |  |
| Cn1c2ccccc2c2c(-c3ccccc3)[n+]3ccncc3nc21 |  |  |  |  | > 100 µM | > 100 µM |  |  | > 100 µM | > 100 µM | 87.5 µM | > 100 µM | > 100 µM | > 100 µM | > 100 µM | > 100 µM | 55.3 µM | > 100 µM |  |
| CC1(C)OC2[C@@H](CNC(=O)NC(=O)NC(=O)CI)O[C@@H](n3cnc4c(NC(=O)Nc5ccccc5)ncnc43)[C@H]2O1 (some centres not stated) |  |  |  |  | 6.95 µM | 14.3 µM |  |  | 14.5 µM | > 50 µM | 12.5 µM | 37.8 µM | 16.4 µM | > 50 µM | 8 µM | 16.6 µM | 9.64 µM | 21.5 µM |  |
| O=c1[nH]ncc(Br)c1Br |  |  |  |  | 2.09 µM | 4.23 µM |  |  | 3.31 µM | 15.3 µM | 2.23 µM | 9.51 µM | 2.91 µM | 7.69 µM | 5.45 µM | 20.8 µM | 2.12 µM | 6.07 µM |  |
| COc1cc([N+](=O)[O-])cc2c3c(n(C)c12)[C@@]1(C)CCC2c4ccc(OCc5ccccc5)cc4CCC2C1C3 (some centres not stated) |  |  |  |  | > 100 µM | > 100 µM |  |  | > 100 µM | > 100 µM | > 100 µM | > 100 µM | > 100 µM | > 100 µM | > 100 µM | > 100 µM | 43.1 µM | > 100 µM |  |
| COc1ccc(C2=CC3CCC2C3)cc1 (configuration not stated) |  |  |  | > 100 µM |  | > 100 µM | > 100 µM | > 100 µM |  |  |  |  |  |  |  |  |  |  |  |
| O=C(/C(Br)=C/c1ccccc1)c1ccccc1 |  |  |  |  | 1.36 µM | 3.23 µM |  |  | 1.77 µM | 3.95 µM | 8.12 µM | 52.4 µM | 2.24 µM | 6.48 µM | 3.11 µM | 10.5 µM | 1.82 µM | 4.71 µM |  |
| COc1ccc(/C=C/c2nccc3ccccc23)cc1OC |  |  |  |  |  | > 10 µM |  |  |  | > 10 µM |  | > 10 µM |  | > 10 µM |  | > 10 µM |  | > 10 µM |  |
| CC1=NN(C(=O)Nc2ccccc2)C(=O)C2CCC(=O)N12 (configuration not stated) |  | > 100 µM |  | > 100 µM |  | > 100 µM | > 100 µM |  |  |  |  |  |  |  |  |  |  |  |  |
| CC(=O)OC[C@]1(C)C=C2C(=O)[C@](C)(O)C3(CC3)C(C)=C2[C@H]1O |  |  |  |  | 0.0899 µM |  |  |  | 0.036 µM |  | 0.296 µM | 1.09 µM | 0.0772 µM | 0.804 µM | 0.135 µM | 1.29 µM | 0.207 µM | 3.65 µM |  |
| CCC[CH2][Sn]1([CH2]CCC)[O]Cc2nc(C)ccc2[O]1 | 3.07 µM | 9.3 µM | 2.07 µM | 5.75 µM | 10.9 µM | 23.5 µM | 6.39 µM |  |  |  |  |  |  |  |  |  |  |  | 2.38 µM |
| OCc1c[nH]c2ccccc12 |  |  |  |  | 23.4 µM | 54.1 µM |  |  | 28.7 µM | 77.4 µM | 33.9 µM | > 100 µM | 23.2 µM | 71.4 µM | 15.5 µM | 45.3 µM | 16 µM | > 100 µM |  |
| O=C(c1ccccc1)c1nnc(C(=O)c2ccccc2)nn1 |  |  |  | > 344 µM |  | > 344 µM | > 344 µM | > 344 µM |  |  |  |  |  |  |  |  |  |  |  |
| CCc1ccc(/C=C\c2cc(OC)c(OC)c(OC)c2)cc1 | 0.0156 µM | 0.228 µM and 0.057 µM | 0.0233 µM | 27.3 µM | 0.0168 µM | 19.9 µM | > 100 µM |  |  |  |  | 0.106 µM |  |  |  |  |  |  | 0.0224 µM |
| COc1ccc(/C=C/CN(C)CCc2ccccc2)cc1OC |  | > 100 µM |  | > 100 µM |  |  | > 100 µM |  |  |  |  |  |  |  |  |  |  |  |  |
| COc1cc2c(c(O)c1Br)C(=O)c1c(O)cc(C[C@H](C)O)cc1[C@H]2[C@H]1c2cc(C[C@H](C)O)cc(O)c2C(=O)c2c1cc(OC)c(Br)c2O |  |  |  |  | 11.4 µM and 20.9 µM | 45.8 µM and > 100 µM |  |  | 4.8 µM and 23.1 µM | 67.5 µM and > 100 µM | 2.99 µM and 4.1 µM | 67.5 µM and 65.9 µM | 17.5 µM and 28.5 µM | 59.9 µM and > 100 µM | 2.85 µM and 4.4 µM | 67.5 µM and > 100 µM | 2.04 µM and 4.09 µM | 13.2 µM and 23.4 µM |  |
| Cc1ccc(NC(=O)c2cccc(N(C)C)c2)cc1NC(=O)c1ccc(O)cc1 |  |  |  |  | > 64.6 µM | > 100 µM |  |  | 62.6 µM | > 100 µM | 63.6 µM | > 100 µM | > 72 µM | > 100 µM | > 61.7 µM | > 100 µM | > 48.7 µM | > 79.2 µM |  |
